Assay results published in patent publication US20250257034A1, “INDOLE DERIVATIVES AS SEROTONERGIC AGENTS USEFUL FOR THE TREATMENT OF DISORDERS RELATED THERETO” (priority 2023, published 2025).
Like-named read-outs stand apart in the source and are kept apart here.

Molecular target: T1, human 5-HT1A receptor (Homo sapiens, UniProt P08908)
T1 sequence (P08908 1-422): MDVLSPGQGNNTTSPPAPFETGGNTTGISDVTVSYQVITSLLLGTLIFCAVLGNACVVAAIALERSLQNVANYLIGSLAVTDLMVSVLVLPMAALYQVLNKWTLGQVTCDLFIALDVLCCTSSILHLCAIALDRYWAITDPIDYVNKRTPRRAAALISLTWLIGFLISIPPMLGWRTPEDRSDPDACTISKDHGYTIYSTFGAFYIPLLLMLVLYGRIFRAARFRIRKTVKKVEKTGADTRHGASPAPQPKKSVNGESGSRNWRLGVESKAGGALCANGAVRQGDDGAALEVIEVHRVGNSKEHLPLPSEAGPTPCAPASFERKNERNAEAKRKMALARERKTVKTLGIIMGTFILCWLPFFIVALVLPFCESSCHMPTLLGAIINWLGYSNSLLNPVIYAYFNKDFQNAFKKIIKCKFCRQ
Experiment: Human 5-HT1A functional FLIPR assay (agonist mode)
Assay type: cell-based
Design: expressed in transfected cells; host or cells: HTR1A&Gα15-CHO
Method: The potential excitatory effects of compounds targeting on 5-hydroxytryptamine receptor 1A (5-HT1A) under agonist mode was assessed.
HTR1A&Gα15-CH0 cells were cultured in DMEM/F12 medium containing 10% dialyzed FBS, 1×penicillin-streptomycin and 600 μg/mL Hygromycin B. The cells were passaged about three times a week, maintained between ˜30% to ˜90% confluence.
1. The cell culture medium (DMEM/F12 medium containing 10% dialyzed FBS, 1×penicillin-streptomycin and 600 μg/mL Hygromycin B), TrypLE™ Express and DPBS was warmed to R.T. in advance.
2. The cell culture medium was removed from flask. Washed cells with DPBS.
3. 1 mL TrypLE™ Express was added to the flask, mixed well by gentle shaking and cells were incubated at 37° C. for a few minutes.
4. The cells were checked for morphological change under microscope, the digestion was stopped by adding 2 mL cell culture medium to the flask when most of cells turned to round.
5. The cell suspension was transferred into a 15 mL centrifuge tube, and then centrifuged at 1,200 rpm for 5 minutes.
6. The supernatant was removed. The cell pellets were resuspended with 2 mL cell culture medium.
7. The cell density was counted using a cell counter.
8. Cells were diluted to 4×10^5/mL with cell culture medium.
9. 30 μL/well cell suspensions were added into a 384-well cell plate (the cell density was 12,000 cells/well).
10. The cell plate was incubated overnight at 37° C., 5% (v/v) CO2.
1. On the day of experiments, culture medium was removed from the cell plate.
2. 10 μL of assay buffer (20 mM HEPES, in 1x HBSS, pH 7.4) was added to each well of the cell plate.
3. 2×dye solution was prepared following the manufacturer's instruction of the FLIPR® Calcium 6 assay kit: • i. The dye was diluted with assay buffer. • ii. probenecid was added to the final concentration of 5 mM. • iii. Vortexed vigorously for I-2 minutes, adjust pH to 7.4.
4. 10 μL of 2×dye solution was added to each well of the cell plate.
5. The cell plate was placed on plate shaker, followed by shaking at 600 rpm for 2 minutes.
6. The plate was incubated at 37° C. for 2 hours followed by an additional 15-minute incubation at 25° C.
1. Serotonin was prepared to the concentration of 10 mM with DMSO, 3-folds serial dilutions were performed with DMSO.
2. Prepared the test compound to the concentration of 10 mM with DMSO, preform 3-folds serial dilutions with DMSO.
3. The compounds were added to a 384-well compound source plate.
4. 90 nL/well of serial diluted compounds were transferred from source plate to a 384-well compound plate by using an Echo.
5. 30 μL/well of assay buffer was added to the compound plate.
6. The plate was mixed on-plate shaker for 2 minutes.
1. After the cells incubated with dye solution, the cell plate, compound plate containing 3×compounds and F LIP R tips were placed into F LIP R.
2. 10 μL of 3×compounds were transferred from the compound plate to the cell plate by F LIP R.
3. The plate was read for 160 sec with 1 sec interval to obtain the data of agonist mode.
1. The normalized fluorescence reading (RFU) was calculated as shown below, wherein Fmax and Fmin stand for maximum and minimum of calcium signal during defined time window:
2. EC50 was calculated by fitting RFU against log of compound concentrations with Hill equation using XLfit.
HTR1A&Gα15-C H0 cells were cultured in DMEM/F 12 medium containing 10% dialyzed FBS, 1x penicillin-streptomycin and 600 μg/mL Hygromycin B. The cells were passaged about three times a week, maintained between ˜30% to ˜90% confluence.
1. The cell culture medium (DMEM/F 12 medium containing 10% dialyzed FBS, 1x penicillin-streptomycin and 600 μg/mL Hygromycin B), TrypLE™ Express and DPBS was warmed to R.T. in advance.
7. The cell density was counted using cell counter.
9. 30 μL/well cell suspensions were added into a 384-well cell plate (The cell density was 12,000 cells/well).
3. 2×dye solution was prepared following the manufacture's instruction of the F LIP R® Calcium 6 assay kit: • i.

Structure (SMILES)	EC50 [nM]	RFU@10 μM (RFU=Fmax−Fmin (Table 47))	RFU@10 μM (RFU=Fmax−Fmin (Table 18))	EC50 (FLIPR calcium, agonist mode, HTR1A&Gα15-CHO cells (Table 47), read-out: h5-HT1A, EC50) [nM]
COc1ccc2[nH]cc(CCN3CC[C@@H](OC)C3)c2c1 [(R) I-66, (R)-5-methoxy-3-(2-(3-methoxypyrrolidin-1-yl)ethyl)-1H-indole]	977	3,690 RFU		
COc1ccc2[nH]cc(CCN3CC[C@@H](OC(F)F)C3)c2c1 [(R) I-67, (R)-3-(2-(3-(Difluoromethoxy)pyrrolidin-1-yl)ethyl)-5-methoxy-1H-indole]	1600	3,988 RFU		
COc1ccc2[nH]cc(CCN3CC[C@H](OC(F)F)C3)c2c1 [(S) I-67, (S)-3-(2-(3-(Difluoromethoxy)pyrrolidin-1-yl)ethyl)-5-methoxy-1H-indole]	187	3,930 RFU		
[2H]C([2H])([2H])N(CCc1c[nH]c2ccc(SC)cc12)C([2H])([2H])[2H] [Compound I-1, N,N-Bis(methyl-d3)-2-(5-(methylthio)-1H-indol-3-yl)ethan-1-amine]	928		2,858 RFU	
CCN(CC)CCc1c[nH]c2ccc(SC)cc12 [Compound I-12, N,N-Diethyl-2-(5-(methylthio)-1H-indol-3-yl)ethan-1-amine]	675		3,735 RFU	
CCN(C)CCc1c[nH]c2ccc(SC)cc12 [Compound I-13, N-Ethyl-N-methyl-2-(5-(methylthio)-1H-indol-3-yl)ethan-1-amine]	693		4,279 RFU	
CSc1ccc2[nH]cc(CCN(C(C)C)C(C)C)c2c1 [Compound I-17, N-Isopropyl-N-(2-(5-(methylthio)-1H-indol-3-yl)ethyl)propan-2-amine]	3380		2,289 RFU	
CSc1ccc2[nH]cc(CCN(C)C(C)C)c2c1 [Compound I-19, N-Methyl-N-(2-(5-(methylthio)-1H-indol-3-yl)ethyl)propan-2-amine]	3870		2,161 RFU	
COc1ccc2[nH]cc(CCN(C)CCOC(F)F)c2c1 [Compound I-71, 2-(Difluoromethoxy)-N-(2-(5-methoxy-1H-indol-3-yl)ethyl)-N-methylethan-1-amine]		3,087 RFU		1840
CN(C)CCc1c[nH]c2ccc(OCCOC(F)F)cc12 [Compound I-128, 2-(5-(2-(Difluoromethoxy)ethoxy)-1H-indol-3-yl)-N,N-dimethylethan-1-amine]		314 RFU		
CN(CCOC(F)F)CCc1c[nH]c2ccccc12 [Compound I-130, N-(2-(1H-Indol-3-yl)ethyl)-2-(difluoromethoxy)-N-methylethan-1-amine]		163 RFU		
CN(C)CCc1c[nH]c2ccccc12 [DMT]		204 RFU	204 RFU	
